From ChEMBL document CHEMBL1201862, “PubChem BioAssay data set” (2004)
Activity calls are given as the source filed them.

How the values were obtained:
Cytochrome P450 3A4 = Cytochrome P450 3A4 (Homo sapiens, UniProt P08684);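 note: CYP3A4 tested as one member of a cytochrome P450 panel screen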
[1] = molecular target: Heat shock protein HSP 90-alpha (Homo sapiens, UniProt P07900); assay type: functional, organism-based
Cytochrome P450 2C19 = Cytochrome P450 2C19 (Homo sapiens, UniProt P33261); test: Cytochrome panel assay with activity outcomes. Panel member name: p450-cyp2c19 Compounds with AC50 equal or less than 10 uM are considered active; assay type: functional; conditions: read-out: AC50
Sequence of Cytochrome P450 2C19 (P33261 whole entry): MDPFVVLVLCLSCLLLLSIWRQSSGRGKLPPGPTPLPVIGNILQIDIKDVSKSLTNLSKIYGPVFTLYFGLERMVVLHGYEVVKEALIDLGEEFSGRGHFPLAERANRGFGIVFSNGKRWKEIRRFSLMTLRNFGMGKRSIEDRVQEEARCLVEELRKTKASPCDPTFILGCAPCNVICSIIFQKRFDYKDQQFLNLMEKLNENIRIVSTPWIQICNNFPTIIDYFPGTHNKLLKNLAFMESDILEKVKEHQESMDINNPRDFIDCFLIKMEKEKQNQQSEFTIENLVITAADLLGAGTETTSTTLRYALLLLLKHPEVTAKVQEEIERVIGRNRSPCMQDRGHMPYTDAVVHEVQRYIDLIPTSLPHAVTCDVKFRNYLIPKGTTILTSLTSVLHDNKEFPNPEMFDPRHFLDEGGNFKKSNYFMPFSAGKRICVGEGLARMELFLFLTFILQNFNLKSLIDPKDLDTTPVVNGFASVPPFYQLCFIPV

Cytochrome P450 2C9 = Cytochrome P450 2C9 (Homo sapiens, UniProt P11712)
Sequence of Cytochrome P450 2C9 (P11712 whole entry): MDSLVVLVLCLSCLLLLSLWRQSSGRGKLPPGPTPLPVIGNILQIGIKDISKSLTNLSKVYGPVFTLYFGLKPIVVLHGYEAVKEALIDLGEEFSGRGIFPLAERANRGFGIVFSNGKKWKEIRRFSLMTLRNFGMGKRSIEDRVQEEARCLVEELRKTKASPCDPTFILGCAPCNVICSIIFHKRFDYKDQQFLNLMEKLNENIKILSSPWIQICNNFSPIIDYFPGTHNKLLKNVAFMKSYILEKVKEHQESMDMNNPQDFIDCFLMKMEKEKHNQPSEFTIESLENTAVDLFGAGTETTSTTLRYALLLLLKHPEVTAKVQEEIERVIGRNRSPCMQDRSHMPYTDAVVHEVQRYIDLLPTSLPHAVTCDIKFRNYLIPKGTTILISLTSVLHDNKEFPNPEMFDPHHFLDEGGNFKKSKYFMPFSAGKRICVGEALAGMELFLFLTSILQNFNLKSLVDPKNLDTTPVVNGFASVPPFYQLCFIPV

Streptococcus = test: GAS UMAA2166 growth inhibition – luminescence, BacTiterGlo, counter-screen for streptokinase expression inhibitor project, dose response (AID 1915); assay type: functional, organism-based;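 note: potency for reduction of bacterial viability or growth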
[2] = tested on: Streptococcus sp. 'group A'; test: Streptococcus pyogenes SK(-)GAS viability under kanamycin – luminescence, BacTiterGlo, confirmation, counter-screen for streptokinase expression inhibitor project, dose response (AID 1900); assay type: functional, organism-based
[3] = Luminescence Cell-Based Dose Retest to Confirm Inhibitors of Cancer Stem Cells. [Related pubchem assays (depositor defined):AID2717, AID2721]; assay type: functional; conditions: Homo sapiens
[4] = reduced cellular PGC1a acetyl-lysine signal – cell-based, cherry-picked samples, dose response (AID 720514); assay type: functional;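 note: potency may reflect raised or lowered acetylation signal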
Fatty acid synthase [5] = molecular target: T1, Fatty acid synthase (Homo sapiens, UniProt P49327); test: inhibition of human FAS-TE enzyme activity – biochemical, kinetic fluorescence intensity, dose response (AID 624326); assay type: functional;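 note: rate of fluorescence rise from hydrolysis of a fluorogenic O-methyl fluorescein ester substrate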
T1 sequence (P49327 whole entry): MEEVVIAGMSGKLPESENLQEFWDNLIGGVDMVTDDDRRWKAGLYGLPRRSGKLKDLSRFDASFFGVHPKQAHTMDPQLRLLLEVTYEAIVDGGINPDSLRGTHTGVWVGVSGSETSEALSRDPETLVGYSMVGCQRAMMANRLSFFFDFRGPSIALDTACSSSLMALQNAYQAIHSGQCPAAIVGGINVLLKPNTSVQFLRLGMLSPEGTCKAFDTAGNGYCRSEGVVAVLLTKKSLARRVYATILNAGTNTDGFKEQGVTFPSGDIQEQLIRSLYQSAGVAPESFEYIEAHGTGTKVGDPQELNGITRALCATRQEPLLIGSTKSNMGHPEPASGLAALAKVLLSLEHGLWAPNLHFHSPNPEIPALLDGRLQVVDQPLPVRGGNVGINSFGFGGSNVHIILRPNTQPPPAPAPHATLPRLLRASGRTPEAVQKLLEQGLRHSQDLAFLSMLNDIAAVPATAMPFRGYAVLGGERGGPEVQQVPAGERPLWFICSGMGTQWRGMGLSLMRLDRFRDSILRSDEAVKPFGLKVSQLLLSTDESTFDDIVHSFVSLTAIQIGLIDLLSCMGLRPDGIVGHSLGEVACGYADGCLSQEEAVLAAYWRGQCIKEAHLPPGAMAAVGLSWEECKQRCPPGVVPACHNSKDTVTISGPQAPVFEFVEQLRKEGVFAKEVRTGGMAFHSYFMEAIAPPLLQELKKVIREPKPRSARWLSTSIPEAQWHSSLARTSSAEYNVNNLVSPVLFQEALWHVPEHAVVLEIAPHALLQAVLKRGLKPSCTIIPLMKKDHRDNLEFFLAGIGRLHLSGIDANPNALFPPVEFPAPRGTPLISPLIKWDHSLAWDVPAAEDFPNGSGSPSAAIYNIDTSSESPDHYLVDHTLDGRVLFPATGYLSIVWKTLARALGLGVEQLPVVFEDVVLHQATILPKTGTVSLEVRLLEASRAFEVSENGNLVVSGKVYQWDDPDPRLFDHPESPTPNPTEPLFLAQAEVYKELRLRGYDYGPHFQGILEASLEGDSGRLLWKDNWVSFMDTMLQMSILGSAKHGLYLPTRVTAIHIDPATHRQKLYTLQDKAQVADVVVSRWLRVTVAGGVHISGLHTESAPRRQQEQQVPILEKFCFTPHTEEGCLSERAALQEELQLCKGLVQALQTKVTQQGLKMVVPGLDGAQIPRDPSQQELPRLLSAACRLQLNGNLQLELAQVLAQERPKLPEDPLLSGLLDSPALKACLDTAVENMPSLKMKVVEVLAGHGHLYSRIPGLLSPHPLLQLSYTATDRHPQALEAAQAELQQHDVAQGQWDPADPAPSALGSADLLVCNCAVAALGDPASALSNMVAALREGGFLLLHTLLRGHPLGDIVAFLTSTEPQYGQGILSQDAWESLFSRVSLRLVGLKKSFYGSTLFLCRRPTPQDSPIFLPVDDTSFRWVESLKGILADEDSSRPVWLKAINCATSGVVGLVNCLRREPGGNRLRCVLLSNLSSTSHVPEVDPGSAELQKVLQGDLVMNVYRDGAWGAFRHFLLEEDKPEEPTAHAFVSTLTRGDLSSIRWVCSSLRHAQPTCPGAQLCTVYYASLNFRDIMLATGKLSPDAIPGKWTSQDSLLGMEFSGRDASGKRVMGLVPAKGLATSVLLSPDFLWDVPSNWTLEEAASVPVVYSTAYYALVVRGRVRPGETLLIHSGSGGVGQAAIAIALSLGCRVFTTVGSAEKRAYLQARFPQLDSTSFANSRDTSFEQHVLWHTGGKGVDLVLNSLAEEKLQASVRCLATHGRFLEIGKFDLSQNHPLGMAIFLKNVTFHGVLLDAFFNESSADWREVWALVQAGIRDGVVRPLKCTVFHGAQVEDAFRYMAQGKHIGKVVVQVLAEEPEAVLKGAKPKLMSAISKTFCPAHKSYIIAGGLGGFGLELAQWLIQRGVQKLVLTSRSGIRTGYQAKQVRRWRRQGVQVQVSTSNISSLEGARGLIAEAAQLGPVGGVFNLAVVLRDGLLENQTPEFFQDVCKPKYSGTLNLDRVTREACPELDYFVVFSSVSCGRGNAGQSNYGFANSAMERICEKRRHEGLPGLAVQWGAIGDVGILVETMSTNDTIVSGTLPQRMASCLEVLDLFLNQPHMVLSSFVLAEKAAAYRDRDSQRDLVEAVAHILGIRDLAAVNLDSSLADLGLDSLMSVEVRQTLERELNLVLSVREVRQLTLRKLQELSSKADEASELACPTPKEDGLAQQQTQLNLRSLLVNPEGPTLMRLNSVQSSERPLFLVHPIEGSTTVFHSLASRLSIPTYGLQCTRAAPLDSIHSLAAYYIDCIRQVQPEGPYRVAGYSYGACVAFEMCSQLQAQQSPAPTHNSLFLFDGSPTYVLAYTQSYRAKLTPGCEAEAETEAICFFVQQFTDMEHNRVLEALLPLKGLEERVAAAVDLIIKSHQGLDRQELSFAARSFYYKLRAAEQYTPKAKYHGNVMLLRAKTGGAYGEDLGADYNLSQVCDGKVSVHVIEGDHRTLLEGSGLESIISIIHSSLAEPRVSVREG

Fatty acid synthase [6] = molecular target: T1, Fatty acid synthase; test: inhibition of human FAS-TE enzyme activity – biochemical, endpoint fluorescence intensity, uHTS hits, dose response (AID 624327); assay type: functional;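 note: fluorescence from hydrolysis of an O-methyl fluorescein acyl ester substrate by the enzyme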
[7] = molecular target: T2, High affinity choline transporter 1 (Homo sapiens, UniProt Q9GZV3); test: human choline transporter blockers, potency – cell-based, 5-point CRC, membrane potential dye, dose response (AID 504840); assay type: functional
T2 sequence (Q9GZV3 whole entry): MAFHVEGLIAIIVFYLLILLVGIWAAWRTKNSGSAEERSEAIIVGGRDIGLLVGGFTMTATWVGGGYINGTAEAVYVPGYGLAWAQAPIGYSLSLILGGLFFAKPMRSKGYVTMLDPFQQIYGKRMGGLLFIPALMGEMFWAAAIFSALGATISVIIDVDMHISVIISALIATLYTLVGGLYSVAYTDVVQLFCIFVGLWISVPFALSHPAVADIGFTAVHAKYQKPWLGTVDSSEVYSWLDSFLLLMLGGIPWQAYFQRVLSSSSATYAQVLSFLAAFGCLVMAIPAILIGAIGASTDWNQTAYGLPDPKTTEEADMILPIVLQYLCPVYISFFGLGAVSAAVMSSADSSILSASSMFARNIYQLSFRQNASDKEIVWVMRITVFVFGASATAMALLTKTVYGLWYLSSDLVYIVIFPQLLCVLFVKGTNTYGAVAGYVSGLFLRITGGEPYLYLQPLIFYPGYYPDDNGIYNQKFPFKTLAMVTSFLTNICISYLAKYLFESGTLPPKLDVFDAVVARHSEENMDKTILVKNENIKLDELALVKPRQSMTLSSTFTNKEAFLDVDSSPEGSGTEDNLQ

[8] = molecular target: T3, DNA repair protein RAD52 homolog (Homo sapiens, UniProt P43351); assay type: functional, biochemical
T3 sequence (P43351 whole entry): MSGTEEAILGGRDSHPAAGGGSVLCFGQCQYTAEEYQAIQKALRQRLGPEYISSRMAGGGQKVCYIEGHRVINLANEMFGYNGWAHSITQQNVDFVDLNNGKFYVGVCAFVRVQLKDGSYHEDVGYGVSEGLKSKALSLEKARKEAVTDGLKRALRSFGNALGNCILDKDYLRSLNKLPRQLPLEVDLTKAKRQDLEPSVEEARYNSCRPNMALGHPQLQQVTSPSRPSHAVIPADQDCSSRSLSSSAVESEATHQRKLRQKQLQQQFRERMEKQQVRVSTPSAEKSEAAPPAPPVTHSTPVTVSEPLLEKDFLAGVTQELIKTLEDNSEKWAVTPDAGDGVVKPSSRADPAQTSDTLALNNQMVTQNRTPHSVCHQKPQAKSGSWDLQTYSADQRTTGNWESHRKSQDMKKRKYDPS

[9] = molecular target: T4, Ubiquitin-conjugating enzyme E2 N (Homo sapiens, UniProt P61088); assay type: functional;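 note: Dose-response confirmation in a TR-FRET assay detecting UBC13-driven polyubiquitin chain formation, inhibition measured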
T4 sequence (P61088 whole entry): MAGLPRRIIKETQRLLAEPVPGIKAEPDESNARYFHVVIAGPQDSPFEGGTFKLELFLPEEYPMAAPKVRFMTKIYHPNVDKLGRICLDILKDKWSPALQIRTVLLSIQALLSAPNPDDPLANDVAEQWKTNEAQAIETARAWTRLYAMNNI

[10] = Trypanosoma cruzi growth suppression in host cells – NIH3T3 host cells, beta-gal luminescence, confirmation (AID 2044); assay type: functional, cell-based;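 note: intracellular parasites grown in NIH/3T3 mouse fibroblasts as host cells; luminescent beta-galactosidase reporter signal from transgenic T. cruzi replicating inside host cells; inhibitors lower the luminescence signal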
[11] = NIH3T3 cell viability loss – ATP luminescence, mouse fibroblasts, counter-screen, dose response (AID 2010); assay type: functional, cell-based;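 note: cells exposed to compound for about 90 hours before reading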
[12] = molecular target: T5, Histone-lysine N-methyltransferase NSD2 (Homo sapiens, UniProt O96028); assay type: biochemical
T5 sequence (O96028 whole entry): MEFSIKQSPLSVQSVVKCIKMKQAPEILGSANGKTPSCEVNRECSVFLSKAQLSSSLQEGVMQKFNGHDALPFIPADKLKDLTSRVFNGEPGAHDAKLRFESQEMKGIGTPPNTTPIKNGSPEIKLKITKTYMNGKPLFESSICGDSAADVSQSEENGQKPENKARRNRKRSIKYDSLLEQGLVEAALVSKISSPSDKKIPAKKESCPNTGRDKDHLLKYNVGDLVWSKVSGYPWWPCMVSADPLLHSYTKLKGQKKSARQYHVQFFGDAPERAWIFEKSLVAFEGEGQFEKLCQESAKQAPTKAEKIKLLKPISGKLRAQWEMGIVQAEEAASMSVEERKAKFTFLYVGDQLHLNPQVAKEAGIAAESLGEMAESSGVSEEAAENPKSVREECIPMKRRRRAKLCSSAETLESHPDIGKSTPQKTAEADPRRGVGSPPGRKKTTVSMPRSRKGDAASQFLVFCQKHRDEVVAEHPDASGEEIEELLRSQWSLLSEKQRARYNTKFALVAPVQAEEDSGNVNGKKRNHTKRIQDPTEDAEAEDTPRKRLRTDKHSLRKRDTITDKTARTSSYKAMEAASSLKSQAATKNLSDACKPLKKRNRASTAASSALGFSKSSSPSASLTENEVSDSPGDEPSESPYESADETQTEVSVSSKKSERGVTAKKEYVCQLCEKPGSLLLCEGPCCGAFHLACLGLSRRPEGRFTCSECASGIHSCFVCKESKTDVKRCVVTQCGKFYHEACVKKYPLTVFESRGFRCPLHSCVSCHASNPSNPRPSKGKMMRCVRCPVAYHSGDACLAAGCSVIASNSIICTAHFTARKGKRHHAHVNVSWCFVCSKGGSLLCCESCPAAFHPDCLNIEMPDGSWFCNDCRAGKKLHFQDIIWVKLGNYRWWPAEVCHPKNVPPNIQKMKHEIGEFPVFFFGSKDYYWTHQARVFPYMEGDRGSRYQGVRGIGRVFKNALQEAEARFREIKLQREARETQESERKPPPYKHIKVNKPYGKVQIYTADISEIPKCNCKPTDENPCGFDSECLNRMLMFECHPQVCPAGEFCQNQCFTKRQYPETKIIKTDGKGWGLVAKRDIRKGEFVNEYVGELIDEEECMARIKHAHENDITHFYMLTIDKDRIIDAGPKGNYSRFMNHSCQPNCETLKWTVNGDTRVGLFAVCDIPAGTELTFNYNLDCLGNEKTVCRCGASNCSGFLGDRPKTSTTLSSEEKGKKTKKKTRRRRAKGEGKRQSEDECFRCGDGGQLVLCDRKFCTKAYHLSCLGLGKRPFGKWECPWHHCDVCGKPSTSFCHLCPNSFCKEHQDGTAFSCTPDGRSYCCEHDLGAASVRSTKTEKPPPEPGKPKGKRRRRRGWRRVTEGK

Sequence of Cytochrome P450 3A4 (P08684 whole entry): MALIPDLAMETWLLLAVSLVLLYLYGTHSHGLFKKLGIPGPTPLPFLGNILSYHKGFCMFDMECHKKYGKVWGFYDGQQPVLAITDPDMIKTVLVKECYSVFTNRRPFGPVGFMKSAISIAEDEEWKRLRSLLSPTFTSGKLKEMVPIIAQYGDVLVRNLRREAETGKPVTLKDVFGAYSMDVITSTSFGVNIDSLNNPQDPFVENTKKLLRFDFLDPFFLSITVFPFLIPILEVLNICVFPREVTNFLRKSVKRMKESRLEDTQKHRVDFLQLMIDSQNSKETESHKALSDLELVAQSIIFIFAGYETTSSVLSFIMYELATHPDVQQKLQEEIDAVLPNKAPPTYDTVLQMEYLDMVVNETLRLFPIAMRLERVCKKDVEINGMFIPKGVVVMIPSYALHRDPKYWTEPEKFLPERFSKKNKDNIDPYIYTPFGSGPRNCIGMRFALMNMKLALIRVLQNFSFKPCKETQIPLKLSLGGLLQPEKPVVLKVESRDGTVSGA

For `Cn1ncc2c(Nc3cccc(Cl)c3)nc(Nc3cccc(Cl)c3)nc21`, the AC50 (Cytochrome P450 3A4) was 6.31 µM (inconclusive), the AC50 [1] was 4.31 µM (active) and the AC50 (Cytochrome P450 2C19) was 3.16 µM (inconclusive). The AC50 (Cytochrome P450 2C9) was 7.94 µM (inconclusive), the EC50 (Streptococcus) was 2.92 µM (active) and the EC50 [2] was 2.68 µM (active). The AC50 [3] was 2.88 µM (active).
In the case of `O=C(c1ccc(Cl)cc1)C(Cn1cncn1)C(Sc1ccccc1)c1ccccc1` (centres undefined), the AC50 [4] is reported as 13 µM (active).
In the case of `O=C(COC(=O)CC1CC2CCC1C2)Nc1cc([N+](=O)[O-])ccc1F` (centres undefined), the IC50 (Fatty acid synthase [5]) is reported as 3.72 µM (active) and the IC50 (Fatty acid synthase [6]) is reported as 4.15 µM (active).
For `CCN1CCN(CCNC(=O)c2ccc3nc(-c4cccc(C)c4)c(-c4cccc(C)c4)nc3c2)CC1`, the IC50 [7] was 3.76 µM (active), the AC50 [8] was 13.5 µM (active) and the IC50 [9] was > 20 µM (inactive).
For `CCN(CC)CCNc1ncnc2c1sc1nc(N3CCCC3)c3c(c12)CC(C)(C)OC3`, the EC50 [10] was 2.86 µM (active), the EC50 [11] was 10.2 µM (active) and the AC50 [12] was 19.7 µM (active). The AC50 [8] was 4.72 µM (active).
In the case of `O=C(CC1C[C@H](C(=O)N2CCOCC2)[C@@]2(CCC3CCCC3)c3[nH]c4ccccc4c3CCN2C1=O)NCCC1=CCCCC1` (some centres undefined), the IC50 (Fatty acid synthase [5]) is reported as 35.1 µM (inactive) and the IC50 (Fatty acid synthase [6]) is reported as 22.2 µM (inactive).
In the case of `Cc1ccc(C(=O)CN(CCC(=O)O)S(=O)(=O)c2ccc([N+](=O)[O-])cc2)cc1`, the IC50 (Fatty acid synthase [5]) is reported as 3.55 µM (active) and the IC50 (Fatty acid synthase [6]) is reported as 5.88 µM (active).
For `C[C@@H]1CN([C@H](C)CO)C(=O)c2cc(C3=CCCCC3)cnc2O[C@@H]1CN(C)Cc1ccccc1`, the AC50 [4] was 28 µM (active).
In the case of `O=C(CCC(=O)Nc1cccc(Cl)c1)N/N=C/c1cc([N+](=O)[O-])ccc1O`, the IC50 (Fatty acid synthase [5]) is reported as 5.71 µM (active) and the IC50 (Fatty acid synthase [6]) is reported as 4.21 µM (active).
